# Measured values: patent publication US8716231B2, “Use of benzo-fused heterocycle sulfamide derivatives for the treatment of pain” (Janssen Pharmaceutica NV, priority 2005, dated 2014)
# Tested on: Taxol®-induced mechanical allodynia
# Assay: Taxol Induced Peripheral Neuropathy Model (pilot), Von Frey testing
# Assay type: in vivo, Sprague-Dawley rats
# Settings: Taxol 2 mg/kg i.p. days 1, 3, 5, 7 + HPMC vehicle; day 12 (baseline 16.42±2.14 g)
# Method: In addition, the compound's effects on spontaneous locomotor activity was measured.
# The animals were housed in polycarbonate plastic cages, 2 animals per cage, at a temperature of 18-26° C., 30-70% humidity, 12-hour light/dark cycle, with food and water available ad libityum.
# On days 1, 3, 5, and 7, the rats received an ip (intraperitoneal) injection of Taxol® (2 mg/kg).
# Two behavioral tests were performed: measurement of tactile sensitivity and spontaneous locomotor activity. At baseline and on Days 5 and 12 post-Taxol® injection, the animals underwent Von Frey testing for mechanical allodynia (according to the procedure as described in Chaplan, S R, Bach, F W, Pogrel, J W, Chung, J M, Yaksh, T L. Quantitative assessment of tactile allodynia in the rat paw. J Neurosci Meth, 53:55-63, 1994). Tactile sensitivity (i.e. mechanical allodynia) was measured using calibrated filaments touched to the plantar surface of the affected limb to determine paw withdrawal threshold. Briefly, the rats were placed in a Plexiglas cage with a wire mesh bottom and allowed to acclimate for 10 minutes. Once the animals settled, the plantar surface of the right hind paw was touched with a 2.0 g von Frey filament. […] Data were analyzed using two-way ANOVA, one-way ANOVA and Dunnett's test, with statistical significance at p<0.05.
row,paw withdrawal threshold (mechanical allodynia),SMILES
1,12.11 ± 4.92 g,"CC(=O)O[C@H]1C(=O)[C@@]2(C)[C@H]([C@H](OC(=O)c3ccccc3)[C@]3(O)C[C@H](OC(=O)[C@H](O)[C@@H](NC(=O)c4ccccc4)c4ccccc4)C(C)=C1C3(C)C)[C@]1(OC(C)=O)CO[C@@H]1C[C@@H]2O [Taxol®, paclitaxel, reference compound]"

# Tested on: not given
# Assay: not given
# Settings: not given
row,SMILES,melting point
1,NS(=O)(=O)NCC1CCc2ccccc2O1 (stereo not drawn),100 to 101 °C
2,NS(=O)(=O)NCCC1COc2ccccc2O1 (stereo not drawn),101 to 103 °C
3,NS(=O)(=O)NC[C@H]1COc2cc(Cl)c(Cl)cc2O1,119 to 121 °C

# Next, values leading:
row,melting point,SMILES
1,76 to 78 °C,CN(C)S(=O)(=O)NCC1COc2ccccc2O1 (stereo not drawn)
2,97 to 98 °C,CN(CC1COc2ccccc2O1)S(N)(=O)=O (stereo not drawn)
